Assay results: the supplement of paper PMC10307832

Key:
Assay in all cases: relative viability (nuclei count vs DMSO), 5 days (fraction); higher = more cells survive
[1] = compound: CC1=CC(=NN1)NC2=CC(=NC(=N2)/C=C/C3=CC=CC=C3)N4CCN(CC4)C + CC(=O)c1c(C)c2cnc(Nc3ccc(N4CCNCC4)cn3)nc2n(C2CCCC2)c1=O [Palbociclib] (partner 0.5 µM)
In short: (§1)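 Lung cancer cell lines in 1536-well plates were dosed by pin tool the day after seeding, either with one drug alone or with a fixed anchor-drug dose plus five library-drug doses (not always all listed) in √10 steps. After 5 days, cells were fixed and their nuclei stained in one step (final 0.05% Triton X-100, 1% formaldehyde, 1 ug/ml Hoechst), then counted on 4× images. Relative viability is the nuclei count in treated wells divided by that in vehicle wells. Values are medians of duplicate plates.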

Obatoclax + Lapatinib = compound: COC1=CC(c2cc3ccccc3[nH]2)=N/C1=C\c1[nH]c(C)cc1C [Obatoclax] + CS(=O)(=O)CCNCc1ccc(-c2ccc3ncnc(Nc4ccc(OCc5cccc(F)c5)c(Cl)c4)c3c2)o1 [Lapatinib] (partner 2 µM)
In short: as §1

[2] = compound: CC1=CC(=NN1)NC2=CC(=NC(=N2)/C=C/C3=CC=CC=C3)N4CCN(CC4)C + O=C(CCCCCCC(=O)Nc1ccccc1)NO [Vorinostat] (partner 1 µM)
In short: as §1

Obatoclax + Bortezomib = compound: COC1=CC(c2cc3ccccc3[nH]2)=N/C1=C\c1[nH]c(C)cc1C [Obatoclax] + CC(C)C[C@H](NC(=O)[C@H](Cc1ccccc1)NC(=O)c1cnccn1)B(O)O [Bortezomib] (partner 0.002 µM)
In short: as §1

Row | Cell Line | relative viability ([1]; first compound 0.08 µM) | relative viability ([1]; first compound 0.253 µM) | relative viability ([1]; first compound 0.8 µM) | relative viability ([1]; first compound 2.53 µM) | relative viability ([1]; first compound 8 µM) | relative viability (Obatoclax + Lapatinib; first compound 0.01 µM) | relative viability (Obatoclax + Lapatinib; first compound 0.03162 µM) | relative viability (Obatoclax + Lapatinib; first compound 0.1 µM) | relative viability (Obatoclax + Lapatinib; first compound 0.3162 µM) | relative viability (Obatoclax + Lapatinib; first compound 1 µM) | relative viability ([2]; first compound 0.08 µM) | relative viability ([2]; first compound 0.253 µM) | relative viability ([2]; first compound 0.8 µM) | relative viability ([2]; first compound 2.53 µM) | relative viability ([2]; first compound 8 µM) | relative viability (Obatoclax + Bortezomib; first compound 0.01 µM) | relative viability (Obatoclax + Bortezomib; first compound 0.03162 µM) | relative viability (Obatoclax + Bortezomib; first compound 0.1 µM) | relative viability (Obatoclax + Bortezomib; first compound 0.3162 µM) | relative viability (Obatoclax + Bortezomib; first compound 1 µM)
1 | NCI-H1437 | 0.304 | 0.317 | 0.307 | 0.231 | 0.152 | 0.755 | 0.859 | 0.712 | 0.707 | 0.433 | 0.631 | 0.904 | 0.819 | 0.394 | 0.201 | 0.463 | 0.421 | 0.477 | 0.438 | 0.358
2 | NCI-H1650 | 0.285 | 0.414 | 0.351 | 0.201 | 0.0872 | 0.849 | 0.657 | 0.698 | 0.418 | 0.302 | 0.523 | 0.733 | 0.553 | 0.14 | 0.0794 | 0.208 | 0.198 | 0.196 | 0.19 | 0.197
3 | NCI-H1651 | 0.525 | 0.536 | 0.496 | 0.462 | 0.266 | 0.645 | 0.764 | 0.744 | 0.664 | 0.341 | 0.349 | 0.529 | 0.464 | 0.497 | 0.145 | 0.901 | 0.855 | 0.858 | 0.943 | 0.992
4 | NCI-H1666 | 0.684 | 0.621 | 0.567 | 0.638 | 0.604 | 0.868 | 0.682 | 0.469 | 0.273 | 0.291 | 1.05 | 0.992 | 0.926 | 1.12 | 0.802 | 0.863 | 0.815 | 0.979 | 0.348 | 0.35
5 | NCI-H1734 | 0.34 | 0.278 | 0.313 | 0.249 | 0.13 | 1.04 | 0.994 | – | 0.661 | 0.706 | 0.745 | 0.757 | 0.694 | 0.22 | 0.187 | 0.928 | 0.818 | – | 0.914 | 0.836
6 | NCI-H1755 | 0.413 | 0.433 | 0.466 | 0.382 | 0.325 | 1.04 | 1.03 | 0.81 | 1.07 | 0.995 | 0.682 | 0.773 | 0.651 | 0.359 | 0.209 | 0.926 | 0.937 | 0.805 | 0.949 | 0.967
7 | NCI-H1915 | 0.531 | 0.526 | 0.484 | 0.354 | 0.226 | 1.03 | 0.879 | 0.852 | 0.978 | 0.925 | 0.493 | 0.584 | 0.467 | 0.376 | 0.116 | 1.05 | 0.748 | 0.93 | 1.01 | 0.975
8 | NCI-H1975 | 0.533 | 0.754 | 0.593 | 0.285 | 0.111 | 1.01 | 0.823 | 0.649 | 0.825 | 0.341 | 0.663 | 0.733 | 0.536 | 0.187 | 0.128 | 0.357 | 0.456 | 0.361 | 0.49 | 0.253
9 | NCI-H1993 | 0.639 | 0.397 | 0.711 | 0.49 | 0.267 | 0.809 | 0.771 | 0.835 | 0.755 | 0.865 | 0.737 | 0.734 | 1.03 | 0.238 | 0.275 | 1.2 | 1.05 | 1.22 | 1.2 | 1.2
10 | NCI-H2009 | 0.191 | 0.18 | 0.216 | 0.129 | 0.102 | 0.92 | 1 | 0.447 | 0.234 | 0.222 | 0.751 | 0.699 | 0.712 | 0.218 | 0.121 | 1.01 | 1.12 | 0.764 | 0.395 | 0.203
11 | NCI-H2023 | 0.406 | 0.451 | 0.301 | 0.111 | 0.0652 | 1.08 | 0.755 | 0.761 | 0.622 | 0.122 | 0.586 | 0.781 | 0.319 | 0.0637 | 0.0403 | 1.03 | 1.08 | 0.808 | 0.675 | 0.425
12 | NCI-H2085 | 0.473 | 0.463 | 0.459 | 0.345 | 0.266 | 0.808 | 0.695 | 0.686 | 0.533 | 0.394 | 0.826 | 0.95 | 0.822 | 0.322 | 0.366 | 1.06 | 1.1 | 0.93 | 0.88 | 0.427
